Where no end group is shown, it is not given here.
How the values were obtained:
sGCα1 = target: T1, sGCα1 (Homo sapiens, UniProt Q02108); experiment: Biotin pulldown and competition from LNCaP extract; format: binding; details: competition, 150 µg unlabeled peptide vs 5 µg Peptide A-8R-Biotin; Fig. 2B
T1 sequence (Q02108 1-690): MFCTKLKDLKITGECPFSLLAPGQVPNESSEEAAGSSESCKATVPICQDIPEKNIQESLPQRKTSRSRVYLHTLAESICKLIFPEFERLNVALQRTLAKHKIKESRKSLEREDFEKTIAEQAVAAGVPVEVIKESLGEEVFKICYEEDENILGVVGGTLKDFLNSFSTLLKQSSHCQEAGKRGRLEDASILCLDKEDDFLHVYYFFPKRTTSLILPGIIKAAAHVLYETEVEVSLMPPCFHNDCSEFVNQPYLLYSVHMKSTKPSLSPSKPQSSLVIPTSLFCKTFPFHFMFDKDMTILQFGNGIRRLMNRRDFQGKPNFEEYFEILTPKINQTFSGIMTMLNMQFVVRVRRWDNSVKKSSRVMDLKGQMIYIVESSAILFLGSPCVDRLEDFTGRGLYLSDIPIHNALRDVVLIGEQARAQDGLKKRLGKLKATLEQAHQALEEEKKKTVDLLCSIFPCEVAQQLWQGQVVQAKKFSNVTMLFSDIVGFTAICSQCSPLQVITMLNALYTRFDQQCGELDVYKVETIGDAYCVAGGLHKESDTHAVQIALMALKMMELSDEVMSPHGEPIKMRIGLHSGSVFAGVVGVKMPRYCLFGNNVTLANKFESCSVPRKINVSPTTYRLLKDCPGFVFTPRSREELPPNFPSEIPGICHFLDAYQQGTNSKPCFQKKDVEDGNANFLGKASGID
Protocol: Immunoprecipitation (IP) in LNCaP cells was performed as described previously. Whole-cell extracts from LNCaP cells were subjected to IP using Protein A/G plus Agarose (Santa Cruz). IP antibodies were against sGCα1 (Cayman Chemical), sGCβ1 (Cayman Chemical), or rabbit IgG (Santa Cruz) as control. For Biotin pulldown, 5 µg Biotin-labeled Peptide A was incubated with NeutrAvidin Agarose Resin (Thermo Scientific) for 3 hours at 4°C, after which whole-cell extract from LNCaP cells was added and incubated overnight at 4°C. Resin was washed and eluted with SDS Sample buffer, followed by SDS-PAGE gel electrophoresis.
Figure 2 Peptide A-8R interacts with sGCα1 in prostate cancer cells. (A) LNCaP cells were treated with 25 µM Biotin-labeled Peptide A-8R for 2 hrs and subjected to immunocytochemistry using anti-sGCα1 or anti-Biotin antibody to measure subcellular co-localization of endogenous sGCα1 and Peptide A-8R. DAPI was used to stain nuclei. (B) LNCaP cytosolic extracts were incubated with Peptide A-8R-Biotin and subjected to purification using streptavidin-agarose. This pull-down experiment was repeated with competing excess amount of unlabeled Peptide C-8R or Peptide A-8R. In both cases Western blotting was used to measure the co-purification of sGCα1. […] Co-purified Peptide A-8R-FITC was quantified by measuring fluorescence signal emission. […] Cell number was measured after 0–48 hrs of incubation. […]

p15, p21, CDK6 = experiment: Expression of cell-cycle regulatory proteins (Western blot), C81 cells; format: cell-based; details: 25 µM, Fig. S7
Protocol: Western blotting was performed as described using primary antibodies against sGCα1 (Cayman Chemical), pan-Akt (Cell Signaling Technology), phospho-AKT (S473, T308) (Cell Signaling Technology), phospho-PDK1 (Cell Signaling Technology), phospho-GSK-3β (Cell Signaling Technology), PARP (Cell Signaling Technology), and β-Actin (Abcam).
Supplementary file pone.0064189.s007.tif: Figure S7 Peptide A-8R induces expression of p15 and p21 in prostate cancer cells. C81 cells treated with 25 µM Peptide A-8R or Peptide C-8R for different times, as shown, monitored for expression of p15, p21, and CDK6 by Western blotting (antibodies from Cell Signaling Technology). Note that β-actin was used to control for protein loading. (TIF) Click here for additional data file.

[1] = Behavior and weight of mice in the animal studies; format: in vivo, mouse
Protocol: 2×10^6 C81 cells in 50 µL of growth medium was mixed with 50 µL Matrigel (BD Biosciences) and injected into both flanks of 4–6-week old SCID male mice. When tumor sizes reached 200 mm^3, 50 µL of Peptide A-8R (40 mg Peptide A-8R/Kg of animal) or Vehicle (DMSO) was directly injected into the tumors every other day. Injections were stopped after 5 times and tumors were measured every 3 days. Mice were euthanized after 3 weeks and tumors were excised. All procedures were approved by the University of Toledo Division of Lab Animal Recourses (DLAR). Protein extracts were prepared by boiling the tumor tissue in 3× SDS buffer, and evaluated by SDS-PAGE gel.
This study was carried out in strict accordance with the recommendations in the Guide for the Care and Use of Laboratory Animals of the National Institutes of Health. The protocol was approved by the Institutional Animal Care and Use Committee of the University of Toledo (Protocol Number: 106418). During the experiments all animals were monitored daily for morbidity and all efforts were made to minimize suffering. At the end of the study all animals were euthanized using inhalation of carbon dioxide, after which surgery was performed to excise tumors from all animals.

LNCaP cells = experiment: AKT over-expression (adenovirus) rescue of Peptide A-8R-treated cells; format: cell-based; details: 10- 50 µM Peptide A-8R; 10% serum; 0–6 days; Fig. S4D

Ac-TFCKAFPFHIIRRRRRRRR [Peptide A-8R]
inhibition of Peptide A-8R-Biotin interaction with sGCα1 (sGCα1): significantly inhibited Peptide A-8R-Biotin interaction with sGCα1 | expression of CDK6 (p15, p21, CDK6): unchanged | expression of p15 and p21 (p15, p21, CDK6): expression increased | effect on behavior or weight of mice [1]: no effect on the behavior or weight of the mice | rescue by adenovirus-expressed AKT (LNCaP cells): unable to rescue

Source: publication PMC3664642, “A Peptide against Soluble Guanylyl Cyclase α1: A New Approach to Treating Prostate Cancer” (PLoS ONE, 2013)
